This is an account of results in patent US8283481B2, “Inhibitors of a 9-cis epoxycarotenoid dioxygenase” (National Research Council of Canada, priority 2008, dated 2012).

For experiment [1], the target named is T1, recombinant AtNCED3 (Arabidopsis thaliana, UniProt Q9LRR7).
T1 construct: glutathione-S-transferase (GST) (C); made in house; host or cells: E. coli BL21(DE3), pRL296 vector
As to the kind of experiment: Recombinant AtNCED3 in vitro enzyme assay (HPLC, cleavage of 9-cis-neoxanthin). The experiment is classed as biochemical. The settings on record: for Ki: Dixon plot, competitive inhibition, 0-250 μM inhibitor, 9-cis-neoxanthin at 50 (55), 30 and 10 μM; for relative inhibition of AtNCED3 activity (in words): in vitro enzyme assay, 1 mM concentration (FIG. 5). From the text: Fresh spinach was macerated under liquid nitrogen and extracted five times with three volumes of methanol/0.1% KOH. Samples were dried using a roto-evaporator, resuspended in acetone and then chilled on ice for one hour. The solvent was subsequently transferred to a new flask, roto-evaporated and resuspended in acetonitrile/acetone (1:1) mixture. The mixture was applied to a gravity flow column containing C-18 silica gel (Sigma) equilibrated in 65% acetonitrile/35% water (solvent C). The column was washed with 49% acetone (solvent D)/51% solvent A and 20 mL of 55% solvent D/45% solvent A while collecting 5 mL fractions. Fractions containing neoxanthin were pooled, dried, and resuspended in 100 μL of methanol. The pooled mixture was separated using an Agilent 1100 series HPLC and a Supelcosil™ LC-18 (25 cm×10 mm, 5 m) (Supelco) column equilibrated with solvent A. The HPLC method consisted of a linear gradient over 30 minutes from 100% solvent A to 100% solvent D with a flow rate of 4 mL/minute at 22° C. and monitored with a PDA detector at 436 nm. The neoxanthin fractions were collected, dried and resuspended in ethanol. Neoxanthin was quantified by determining its OD439 using a PerkinElmer Lambda 35 UV/VIS Spectrometer and applying its extinction coefficient of 2243 (A^1%1cm).^30
AtNCED3 was over-expressed using the pRL296 expression vector (a gift from M. Cygler, BRI, Montreal) in E. coli (BL21)DE3 cells as a glutathione-S-transferase fusion protein and affinity purified using glutathione sepharose 4 fast flow resin (GE Healthcare) as described previously.^35 Essentially, cells were grown to an OD600 of 0.45 at 37° C. and 200 rpm shaking. The culture was induced with 1 mM isopropyl-β-d-thiogalactoside for 16 h at 15° C. and 200 rpm shaking. The cells were pelleted and resuspended in 50 mM Tris-HCl (pH 8.0) 1 mM DTT and 0.5% protease inhibitor cocktail set III (CalBiochem). Cells were lysed using a french press at 20,000 psi and affinity purified as per manufacturer's instructions (GE Healthcare). Protein concentration was determined by the method of Bradford.^36
Enzymatic assays contained 100 mM Bis-Tris (pH 6.7), […], 10 mM ascorbate, 0.05% Triton™ X-100, catalase (1 mg/mL), neoxanthin and inhibitor to a total volume of 5 L of ethanol and 8 g AtNCED3 to a total assay volume of 100 L. Assays were incubated at 22° C. for 20 min. The assays were stopped with the addition of 50 L of 25% Triton™ X-100 and extracted with 150 L of ethyl acetate. All procedures were performed under red-light to minimize photo-induced damage to assay components and products.^6 Fine chemicals and solvents were purchased from Sigma-Aldrich. 75 μL of the assay extract was injected into an Agilent 1100 series HPLC machine equipped with a Supelcosil™ LC-18 (3.3 cm×4.6 mm, 3 m) (Supelco) column pre-equilibrated with 15% acetonitrile (solvent B)/85% water (solvent A). Solvent B increased to 35% over ten minutes, followed by a linear gradient of 65% solvent B to 100% solvent D over 10 minutes. Solvent D was maintained at 100% for 2 minutes and then the column was returned to 15% solvent B for 5 min. The flow rate was maintained at 1.5 mL/min. and monitored with a photodiode array (PDA) detector at 436 and 262 nm.
Evaluation of recombinant AtNCED3 kinetic parameters for Km was accomplished using Michaelis-Menten equation plotted with EnzFitter™ v2.0.18.0 (Biosoft). The Ki for inhibitors was determined using a Dixon plot and concentration ranges of 250, 200, 150, 100, 50 and 0 μM inhibitor in the presence of either 55, 30 or 10 μM 9-cis-neoxanthin 2.^5

Experiment [2] relates to Rd29B. As to the kind of experiment: qRT-PCR transcript level in mannitol stressed plants: Rd29B. In kind it is in vivo, Arabidopsis thaliana. The settings on record: 10 and 33 μM, 6 hours post-compound treatment, normalized to UBQ10. How it is done: (§1) For each condition to be tested, three hundred wild-type Arabidopsis thaliana Col-0 seeds (LEHLE) were sterilized, vernalized and sewn onto 200 mL of Sunshine Mix #3 (Sun Gro) potting material in an 8×8×4 cm pot. Plants were watered continuously with 25 g/100 mL of 20-20-20 (PlantProdTM) fertilizer and grown at 22° C. with a 16 hour photoperiod for 22 days. Plants were pre-treated with 50 mL/pot of Buffer A (10 mM HEPES pH 6.5) (Sigma)+/-10 or 33 μM test compound for 2 hours. Plants were then soaked with 50 mL/pot of Buffer A containing 0.4 M mannitol (Sigma)+/-10 or 33 μM test compound. Non-treated/non-stressed control plants were simply soaked in Buffer A at the designated time points. Aerial plant tissue was harvested after 6, 12 and 48 hours from the time of initial inhibitor treatment and flash frozen in liquid nitrogen. Half of the tissue samples were lyophilized for metabolite profiling and the other half taken for quantitative reverse-transcription polymerase chain reaction (qRT-PCR) analysis. […] The resulting mRNA was quantified and checked for quality using a Nano-DropTM ND-1000 Spectrophotometer. QuantiTectTM Reverse Transcription Kit (Qiagen) was used to produce cDNA as directed by the manufacturer from 20 ng of starting mRNA. […] Relative changes in transcript level were normalized using UBQ10 and quantified as previously described.^41
A general note: Real-time PCR tracks product formation cycle by cycle.

The subject of experiment [3] is CYP707A1. Put plainly: qRT-PCR transcript level in mannitol stressed plants: CYP707A1. The experiment is classed as in vivo, Arabidopsis thaliana. Conditions: 10 and 33 μM, 6 hours post-compound treatment, normalized to UBQ10. Here is the method: as §1
For experiment [4], the system named is CYP707A3. As to the kind of experiment: qRT-PCR transcript level in mannitol stressed plants: CYP707A3. Conditions: 10 and 33 μM, 6 hours post-compound treatment, normalized to UBQ10. In kind it is in vivo, Arabidopsis thaliana. Here is the method: as §1
Experiment [5] deals with AtNCED3. Put plainly: qRT-PCR transcript level in mannitol stressed plants: AtNCED3. In kind it is in vivo, Arabidopsis thaliana. The settings on record: 10 and 33 μM, mannitol stress. Here is the method:
For each condition to be tested, three hundred wild-type Arabidopsis thaliana Col-0 seeds (LEHLE) were sterilized, vernalized and sewn onto 200 mL of Sunshine Mix #3 (Sun Gro) potting material in an 8×8×4 cm pot. Plants were watered continuously with 25 g/100 mL of 20-20-20 (PlantProdTM) fertilizer and grown at 22° C. with a 16 hour photoperiod for 22 days. Plants were pre-treated with 50 mL/pot of Buffer A (10 mM HEPES pH 6.5) (Sigma)+/-10 or 33 μM test compound for 2 hours. Plants were then soaked with 50 mL/pot of Buffer A containing 0.4 M mannitol (Sigma)+/-10 or 33 μM test compound. Non-treated/non-stressed control plants were simply soaked in Buffer A at the designated time points. Aerial plant tissue was harvested after 6, 12 and 48 hours from the time of initial inhibitor treatment and flash frozen in liquid nitrogen. Half of the tissue samples were lyophilized for metabolite profiling and the other half taken for quantitative reverse-transcription polymerase chain reaction (qRT-PCR) analysis. […] The resulting mRNA was quantified and checked for quality using a Nano-DropTM ND-1000 Spectrophotometer. QuantiTectTM Reverse Transcription Kit (Qiagen) was used to produce cDNA as directed by the manufacturer from 20 ng of starting mRNA. Quantitative PCR was performed on 1 μL of cDNA product using a Bio-Rad iCyclerTM and the QuantiTectTM SYBR Green PCR Kit (Qiagen) coupled with QuantiTectTM Primer Assays (Qiagen) for the gene targets; […]-112304), Rd29B (NM-124609), CYP707A1 (NM-118043), CYP707A3 (NM-123902) and UBQ10 (NM-178968). The pre-validated primer sets are as follows indicated by the GeneGlobe (www1.qiagen.com/GeneGlobe/default.aspx) product name and (catalogue number): At_NCED3-1_SG (QT00769573), At_RD29B-1_SG (QT00840399), At_CYP707A1-1_SG (QT00808339), At_CYP707A3-1_SG (QT00739242), At_UBQ10_va.1_SG (QT01123745). Relative changes in transcript level were normalized using UBQ10 and quantified as previously described.^41

T1 sequence (Q9LRR7 41-599): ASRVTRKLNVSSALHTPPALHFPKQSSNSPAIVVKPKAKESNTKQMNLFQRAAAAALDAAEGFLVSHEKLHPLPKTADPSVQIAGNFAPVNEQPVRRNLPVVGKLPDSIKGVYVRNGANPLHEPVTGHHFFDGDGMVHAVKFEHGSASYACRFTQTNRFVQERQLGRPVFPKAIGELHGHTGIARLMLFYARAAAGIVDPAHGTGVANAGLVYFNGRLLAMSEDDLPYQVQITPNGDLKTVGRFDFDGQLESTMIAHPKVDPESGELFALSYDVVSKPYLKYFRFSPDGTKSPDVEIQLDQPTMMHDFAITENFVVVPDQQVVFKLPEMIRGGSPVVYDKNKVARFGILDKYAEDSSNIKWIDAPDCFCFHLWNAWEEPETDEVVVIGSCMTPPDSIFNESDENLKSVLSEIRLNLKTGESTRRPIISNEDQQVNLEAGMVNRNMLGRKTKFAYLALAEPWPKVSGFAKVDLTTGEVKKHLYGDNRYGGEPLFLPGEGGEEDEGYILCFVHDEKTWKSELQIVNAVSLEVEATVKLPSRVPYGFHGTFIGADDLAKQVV

Regarding `CCSCC=C(C)C#CC1(O)C(C)CC(=O)CC1(C)C` (racemic) [Compound 13, (4S,5R/4R,5S)-(3′Z)-4-(5′-(Ethylthio)-3′-methylpent-3′-en-1′-ynyl)-4-hydroxy-3,3,5-trimethylcyclohexanone], in experiment [1] (1 mM compound), the inhibition at 1000 µM came to 75%. The Ki in experiment [1] is 93 µM. In experiment [2], the “inhibition of mannitol-induced Rd29b transcription” value is given as “about 90%”. Besides, the “CYP707A1 mRNA transcript level vs mannitol-stressed control (in words)” value in experiment [3] is “reductions in the accumulation of mRNA transcript levels”. Moreover, in experiment [4], the “CYP707A3 mRNA transcript level vs mannitol-stressed control (in words)” value is given as “reductions in the accumulation of mRNA transcript levels”. Further, the “relative expression level of AtNCED3 in mannitol stressed plants (in words)” value (shortened to “relative expression level of AtNCED3”) in experiment [5] is given as “decrease the relative expression levels of AtNCED3”.
In the case of `C/C(C#C[C@@]12O[C@]1(C)C[C@@H](O)CC2(C)C)=C/CSc1ccccc1` [Compound 17, (1R,3S,6R)-(3′Z)-1,5,5-Trimethyl-6-(3′-methyl-5′-(phenylthio)-pent-3′-en-1′-ynyl)-7-oxa-bicyclo[4.1.0]heptan-3-ol], in experiment [1], the Ki was 57 µM and the “relative inhibition of AtNCED3 activity (in words)” value is “completely inhibited”. Further, the “relative expression level of AtNCED3” value in experiment [5] is reported as “similar, although not as pronounced effects”.
As to `C/C(C#C[C@@]12O[C@]1(C)C[C@@H](O)CC2(C)C)=C/CNc1ccccc1` [Compound 18, (1R,3S,6R)-(3′Z)-1,5,5-Trimethyl-6-(3′-methyl-5′-(phenylamino)-pent-3′-en-1-ynyl)-7-oxabicyclo[4.1.0]heptan-3-ol], in experiment [1], the inhibition constant Ki turned out to be 87 µM and the “relative inhibition of AtNCED3 activity (in words)” value is listed as “completely inhibited”. Besides, the “relative expression level of AtNCED3” value in experiment [5] is recorded as “similar, although not as pronounced effects”.

For orientation: inhibition means the share of the control response that was lost under treatment. What is called Ki is a dissociation constant, usually derived from enzyme kinetics or from competition with a known ligand.
